Assay results as given in patent US11896561B2, “Compositions including a cannabinoid and protocatechuic acid” (priority 2021, dated 2024).
Converted amounts (≈) assume the structure as drawn. “Also recorded” adds a separate entry of the source.

Tests used:
[1] = humans; cited from earlier work
[2] = cited from earlier work
[3] = Testing of smear on glass slide (crystals deployed); type: physicochemical
Source text: An additional method was employed to replicate the clinical topical application. A smear of the various concentrations was made on the glass histology blank slide to show the amount of crystals deployed for the various concentrations.

[4] = cited from earlier work; remark: listed apart in the source
[5] = CBD solubility testing in liquid vehicles; type: physicochemical
Source text: The liquid vehicles used are considered G.R.A.S. by FDA; distilled water, deionized water, propylene glycol and 70% isopropyl alcohol. The test containers were 125-milliliter graduated and measured sterile plastic from Wheaton company. A thermometer probe was used to assess the temperatures.
Testing was done to determine the independent solubility of each reagent in the various vehicles. This was followed by testing the potential concentrations of each when combined. The testing started with an arbitrary solution concentration, one that could be altered for percentage of solubility.

MRSA and Pseudomonas = settings: cited from earlier work
[6] = compared with vitamin E; cited from earlier work

## C=C(C)[C@@H]1CCC(C)=C[C@H]1c1c(O)cc(CCCCC)cc1O [CBD, Cannabidiol]
[1]
  oral bioavailability: approximately 6%
[2]; DMSO purged with an inert gas
  solubility in DMSO: ~60 mg/mL (≈ 191 mM)
[2]; alcohol, at the original time of extraction, by the literature
  solubility in alcohol / isopropyl alcohol: up to 90%
[2]; dimethyl formamide purged with an inert gas
  solubility in dimethyl formamide: ~50 mg/mL (≈ 159 mM)
[2]; ethanol purged with an inert gas
  solubility in ethanol: approximately 35 mg/ml
[2]; methanol purged with an inert gas
  solubility in methanol: ~30 mg/mL (≈ 95.4 mM)
[3]; 1% concentrations
  crystals on glass slide smear: very sparse crystals
[3]; concentrations of 2 and 3%
  crystals on glass slide smear: abundant crystals
[4]; in vivo
  elimination half-life: 18 to 32 h
[5]; 0.247 (0.247%) in 100 ml distilled water
  heating necessary for dissolving: 120 degrees Fahrenheit
[5]; 0.247 (0.247%) in 100 ml distilled water, heated to 120 degrees Fahrenheit then cooled
  solution outcome upon cooling: went out of solution
[5]; 0.517 (0.5 grams) in 50 ml deionized water, preheated
  time remained in solution: at least 48 hours
[5]; 1.0 gram (1%) in 100 ml distilled water
  heating necessary for dissolving: 120 degrees Fahrenheit
[5]; 1.0 gram (1%) in 100 ml distilled water, heated to 120 degrees Fahrenheit then cooled
  solution outcome upon cooling: went out of solution
[5]; 1 gram (1%) in 100 ml propylene glycol, preliminary heating to 120 Fahrenheit, after cooling
  time remained in solution: > 48 h
[5]; 1.02 gram in 100 ml isopropyl alcohol
  time soluble: more than 48 hours
[5]; 1.025 grams in 50 ml deionized water
  temperature at which it went into solution: 120 Fahrenheit
[5]; 1.025 grams in 50 ml deionized water (2.05%), after cooling
  solution outcome: came out of solution
[5]; 2% in 100 ml propylene glycol, heated then cooled
  solution outcome upon cooling: came out of solution
[5]; 2 grams (4%) in 50 ml propylene glycol, with heating
  solution outcome: did not go into solution even with heating; also recorded: not dissolved even on heating
[5]; 3 grams in 100 ml 70% isopropyl alcohol
  time remained soluble: more than 48 hours
[5]; 40 milligrams of CBD in distilled water
  temperature required to dissolve: 140 degrees Fahrenheit
[5]; heated past 100 Fahrenheit
  effect of heating in solution: forms a tan “glue” like material
[5]; heating above 90 Fahrenheit
  effect of heating alone and/or in combination: tan ‘glue’ or sticky material

## O=C(O)c1ccc(O)c(O)c1 [PCA, Protocatechuic acid]
MRSA and Pseudomonas; topical 25 uM PCA, mammalian skin wound
  time to heal the wound: 2 days
MRSA and Pseudomonas; topical, mammalian skin wound of MRSA and Pseudomonas
  topical dose sufficient for controlling skin wound infection: 25 µM
[6]
  antioxidant power relative to vitamin E: 10 times
[3]; concentrations of 2 and 3%
  crystals on glass slide smear: abundant crystals
[4]; in vivo
  life (duration in the body): 8 h
[4]; oral, in 30 minutes
  oral availability: 100%
[4]; time of peak in the body
  peak: 2 min
